Article PMC5862592, “CDK8/19 inhibition induces premature G1/S transition and ATR-dependent cell death in prostate cancer cells” (Oncotarget, 2018)
Like-named read-outs stand apart in the source and are kept apart here.

Experiments:
Test in all cases: biochemical
Parameters in all cases: KINOMEscan active site-directed competition binding assay (DiscoveRx), 456 kinases, per cent of control at 300 nM
Details in all cases: read-out: Percent of Control (%)
BIKE = target: T1, BIKE (Homo sapiens, UniProt Q9NSY1)
T1 construct: gene BMP2K
How it was run: (§1)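 Kinase panel (456 enzymes) profiled by competitive displacement at the active site; compounds run at 300 nmol/L.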

CDK11 = target: T2, CDK11 (Homo sapiens, UniProt Q9BWU1)
T2 construct: gene CDK19
How it was run: as §1

CDK5 = CDK5 (Homo sapiens, UniProt Q00535)
How it was run: as §1

CSNK1D = CSNK1D (Homo sapiens, UniProt P48730)
How it was run: as §1

DYRK1A = DYRK1A (Homo sapiens, UniProt Q13627)
How it was run: as §1

EPHB4 = EPHB4 (Homo sapiens, UniProt P54760)
How it was run: as §1

ERBB4 = ERBB4 (Homo sapiens, UniProt Q15303)
How it was run: as §1

MARK4 = MARK4 (Homo sapiens, UniProt Q96L34)
How it was run: as §1

MEK3 = target: T3, MEK3 (Homo sapiens, UniProt P46734)
T3 construct: gene MAP2K3
How it was run: as §1

PCTK3 = target: T4, PCTK3 (Homo sapiens, UniProt Q07002)
T4 construct: gene CDK18
How it was run: as §1

PDGFRA = PDGFRA (Homo sapiens, UniProt P16234)
How it was run: as §1

PDGFRB = PDGFRB (Homo sapiens, UniProt P09619)
How it was run: as §1

PDPK1 = PDPK1 (Homo sapiens, UniProt O15530)
How it was run: as §1

PHKG2 = PHKG2 (Homo sapiens, UniProt P15735)
How it was run: as §1

PIK3CA(C420R) = PIK3CA(C420R) (Homo sapiens, UniProt P42336, C420R)
How it was run: as §1

PKMYT1 = PKMYT1 (Homo sapiens, UniProt Q99640)
How it was run: as §1

PLK1 = PLK1 (Homo sapiens, UniProt P53350)
How it was run: as §1

PRKCD = PRKCD (Homo sapiens, UniProt Q05655)
How it was run: as §1

PRKR = target: T5, PRKR (Homo sapiens, UniProt P19525)
T5 construct: gene EIF2AK2
How it was run: as §1

SIK2 = SIK2 (Homo sapiens, UniProt Q9H0K1)
How it was run: as §1

STK36 = STK36 (Homo sapiens, UniProt Q9NRP7)
How it was run: as §1

ULK1 = ULK1 (Homo sapiens, UniProt O75385)
How it was run: as §1

Sequence of PKMYT1 (Q99640 whole entry): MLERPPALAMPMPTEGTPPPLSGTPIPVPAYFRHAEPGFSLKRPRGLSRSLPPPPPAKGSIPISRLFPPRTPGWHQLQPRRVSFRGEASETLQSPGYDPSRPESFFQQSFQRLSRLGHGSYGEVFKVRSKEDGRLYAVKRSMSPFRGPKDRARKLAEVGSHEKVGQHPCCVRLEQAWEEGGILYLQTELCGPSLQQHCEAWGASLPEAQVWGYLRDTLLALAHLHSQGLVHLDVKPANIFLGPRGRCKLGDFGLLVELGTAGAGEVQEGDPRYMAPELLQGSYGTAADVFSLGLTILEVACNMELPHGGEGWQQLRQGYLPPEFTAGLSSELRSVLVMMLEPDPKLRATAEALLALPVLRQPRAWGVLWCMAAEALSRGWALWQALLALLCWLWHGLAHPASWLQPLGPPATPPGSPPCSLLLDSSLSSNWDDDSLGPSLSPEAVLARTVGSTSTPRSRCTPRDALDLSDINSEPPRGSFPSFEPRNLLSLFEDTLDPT
Sequence of STK36 (Q9NRP7 whole entry): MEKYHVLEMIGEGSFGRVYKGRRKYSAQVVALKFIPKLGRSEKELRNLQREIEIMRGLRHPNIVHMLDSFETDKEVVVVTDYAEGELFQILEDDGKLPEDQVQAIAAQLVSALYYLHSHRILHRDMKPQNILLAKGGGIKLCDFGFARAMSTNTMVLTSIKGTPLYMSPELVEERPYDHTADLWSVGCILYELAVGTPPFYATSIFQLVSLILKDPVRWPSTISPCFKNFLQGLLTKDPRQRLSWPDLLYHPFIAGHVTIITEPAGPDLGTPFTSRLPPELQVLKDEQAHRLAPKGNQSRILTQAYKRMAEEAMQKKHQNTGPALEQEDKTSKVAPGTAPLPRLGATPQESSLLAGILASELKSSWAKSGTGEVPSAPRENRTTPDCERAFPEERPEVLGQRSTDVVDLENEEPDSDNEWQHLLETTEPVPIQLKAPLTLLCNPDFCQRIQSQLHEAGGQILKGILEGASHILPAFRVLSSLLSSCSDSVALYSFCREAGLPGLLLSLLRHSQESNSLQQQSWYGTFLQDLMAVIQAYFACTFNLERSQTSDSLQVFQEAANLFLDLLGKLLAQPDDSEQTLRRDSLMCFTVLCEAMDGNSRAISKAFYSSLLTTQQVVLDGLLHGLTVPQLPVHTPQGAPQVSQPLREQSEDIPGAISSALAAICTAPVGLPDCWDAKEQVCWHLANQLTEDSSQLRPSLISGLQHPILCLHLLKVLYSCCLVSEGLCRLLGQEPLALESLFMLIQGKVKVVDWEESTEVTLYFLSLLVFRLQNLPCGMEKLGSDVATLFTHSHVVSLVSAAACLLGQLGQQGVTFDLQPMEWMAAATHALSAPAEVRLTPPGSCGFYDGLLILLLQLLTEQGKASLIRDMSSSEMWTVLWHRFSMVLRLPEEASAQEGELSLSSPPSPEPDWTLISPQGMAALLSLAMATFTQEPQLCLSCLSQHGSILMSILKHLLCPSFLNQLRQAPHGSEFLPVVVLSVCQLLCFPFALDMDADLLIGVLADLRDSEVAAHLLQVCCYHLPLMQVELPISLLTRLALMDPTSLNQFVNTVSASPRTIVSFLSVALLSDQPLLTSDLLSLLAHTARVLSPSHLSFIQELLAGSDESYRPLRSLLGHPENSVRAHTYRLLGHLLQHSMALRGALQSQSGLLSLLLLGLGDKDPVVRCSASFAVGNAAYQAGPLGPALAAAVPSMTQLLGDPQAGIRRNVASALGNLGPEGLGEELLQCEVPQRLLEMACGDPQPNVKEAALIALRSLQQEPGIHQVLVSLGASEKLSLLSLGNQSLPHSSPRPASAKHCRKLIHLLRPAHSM
T5 sequence (P19525 whole entry): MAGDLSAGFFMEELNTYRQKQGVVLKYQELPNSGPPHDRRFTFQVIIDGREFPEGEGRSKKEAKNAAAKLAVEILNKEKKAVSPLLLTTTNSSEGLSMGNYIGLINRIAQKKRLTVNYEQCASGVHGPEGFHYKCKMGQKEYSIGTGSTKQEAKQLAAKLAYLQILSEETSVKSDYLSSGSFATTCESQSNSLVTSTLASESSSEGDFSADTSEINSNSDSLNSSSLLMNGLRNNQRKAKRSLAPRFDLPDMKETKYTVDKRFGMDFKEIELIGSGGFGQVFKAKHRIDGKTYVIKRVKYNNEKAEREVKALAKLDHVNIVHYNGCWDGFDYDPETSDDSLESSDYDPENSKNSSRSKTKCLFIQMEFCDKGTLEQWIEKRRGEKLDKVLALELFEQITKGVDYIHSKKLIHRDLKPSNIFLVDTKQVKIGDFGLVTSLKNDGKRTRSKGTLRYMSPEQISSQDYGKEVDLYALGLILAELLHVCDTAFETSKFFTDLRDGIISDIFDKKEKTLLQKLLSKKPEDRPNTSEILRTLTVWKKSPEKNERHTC
Sequence of PDGFRB (P09619 whole entry): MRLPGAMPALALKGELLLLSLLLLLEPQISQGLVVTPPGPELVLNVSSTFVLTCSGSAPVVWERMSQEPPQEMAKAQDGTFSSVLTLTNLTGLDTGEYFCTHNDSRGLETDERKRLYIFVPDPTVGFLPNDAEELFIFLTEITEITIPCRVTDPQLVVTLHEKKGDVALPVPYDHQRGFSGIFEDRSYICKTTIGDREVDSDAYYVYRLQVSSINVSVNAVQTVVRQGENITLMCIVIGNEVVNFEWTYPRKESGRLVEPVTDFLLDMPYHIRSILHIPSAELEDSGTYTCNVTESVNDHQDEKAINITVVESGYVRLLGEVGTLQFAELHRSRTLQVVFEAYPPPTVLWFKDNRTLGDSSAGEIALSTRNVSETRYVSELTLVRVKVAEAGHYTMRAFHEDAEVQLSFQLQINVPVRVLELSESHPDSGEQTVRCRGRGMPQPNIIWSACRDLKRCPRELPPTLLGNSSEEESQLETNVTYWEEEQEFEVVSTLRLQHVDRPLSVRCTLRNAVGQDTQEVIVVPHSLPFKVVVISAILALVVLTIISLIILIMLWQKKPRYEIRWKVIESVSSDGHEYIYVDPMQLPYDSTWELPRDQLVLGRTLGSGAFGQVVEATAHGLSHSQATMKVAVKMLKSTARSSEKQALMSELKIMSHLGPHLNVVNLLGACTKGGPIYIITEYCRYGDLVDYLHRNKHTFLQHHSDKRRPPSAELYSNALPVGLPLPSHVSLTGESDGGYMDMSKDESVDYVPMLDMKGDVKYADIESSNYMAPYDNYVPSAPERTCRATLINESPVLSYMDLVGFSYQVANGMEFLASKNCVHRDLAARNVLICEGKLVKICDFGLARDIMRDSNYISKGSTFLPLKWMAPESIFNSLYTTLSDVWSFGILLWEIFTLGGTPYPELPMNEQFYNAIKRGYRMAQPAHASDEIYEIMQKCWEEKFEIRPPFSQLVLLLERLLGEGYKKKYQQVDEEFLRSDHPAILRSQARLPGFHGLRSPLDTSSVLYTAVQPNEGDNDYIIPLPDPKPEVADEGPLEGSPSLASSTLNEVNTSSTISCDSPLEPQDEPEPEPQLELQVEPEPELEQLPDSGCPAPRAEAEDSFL
T4 sequence (Q07002 whole entry): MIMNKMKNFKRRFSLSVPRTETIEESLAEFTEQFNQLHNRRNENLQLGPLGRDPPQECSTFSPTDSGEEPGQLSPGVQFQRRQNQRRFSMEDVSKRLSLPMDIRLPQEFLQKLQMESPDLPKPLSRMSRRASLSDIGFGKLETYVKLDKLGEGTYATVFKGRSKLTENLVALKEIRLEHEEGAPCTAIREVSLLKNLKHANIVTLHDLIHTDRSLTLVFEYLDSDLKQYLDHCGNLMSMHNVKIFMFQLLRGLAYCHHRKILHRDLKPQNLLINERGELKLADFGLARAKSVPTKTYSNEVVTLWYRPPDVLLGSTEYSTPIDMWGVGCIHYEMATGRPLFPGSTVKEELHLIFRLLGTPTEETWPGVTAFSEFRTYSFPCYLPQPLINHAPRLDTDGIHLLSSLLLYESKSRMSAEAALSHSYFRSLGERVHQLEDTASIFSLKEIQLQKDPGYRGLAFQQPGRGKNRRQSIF
T2 sequence (Q9BWU1 whole entry): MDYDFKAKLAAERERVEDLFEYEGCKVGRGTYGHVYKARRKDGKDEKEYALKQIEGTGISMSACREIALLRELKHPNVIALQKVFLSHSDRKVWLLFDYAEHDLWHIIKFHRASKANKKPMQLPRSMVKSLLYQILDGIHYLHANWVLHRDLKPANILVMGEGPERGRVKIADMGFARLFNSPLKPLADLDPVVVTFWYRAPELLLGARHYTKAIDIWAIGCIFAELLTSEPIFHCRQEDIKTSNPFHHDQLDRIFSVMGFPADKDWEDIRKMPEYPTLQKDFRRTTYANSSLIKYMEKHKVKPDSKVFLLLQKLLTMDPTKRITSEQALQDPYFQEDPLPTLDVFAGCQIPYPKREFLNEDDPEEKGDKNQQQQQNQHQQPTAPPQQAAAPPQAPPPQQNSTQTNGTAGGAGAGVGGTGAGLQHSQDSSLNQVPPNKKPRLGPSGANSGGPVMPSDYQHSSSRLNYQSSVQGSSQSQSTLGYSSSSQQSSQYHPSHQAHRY
Sequence of PHKG2 (P15735 whole entry): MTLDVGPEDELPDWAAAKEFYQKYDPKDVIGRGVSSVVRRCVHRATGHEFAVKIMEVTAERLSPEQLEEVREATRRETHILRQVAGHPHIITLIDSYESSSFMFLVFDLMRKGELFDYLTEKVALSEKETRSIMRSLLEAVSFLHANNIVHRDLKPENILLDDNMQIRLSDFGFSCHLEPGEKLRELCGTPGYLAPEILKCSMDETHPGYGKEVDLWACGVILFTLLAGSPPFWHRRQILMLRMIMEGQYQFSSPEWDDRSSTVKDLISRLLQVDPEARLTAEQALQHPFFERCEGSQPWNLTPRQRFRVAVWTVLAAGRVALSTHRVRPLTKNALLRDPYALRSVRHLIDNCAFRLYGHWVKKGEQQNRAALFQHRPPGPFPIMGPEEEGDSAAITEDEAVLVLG

## O=C(/C=C/c1cnccc1-c1ccc(F)cc1)Nc1ccc(CCc2nnco2)cc1 [T-418, (2E)-3-(4-(4-fluorophenyl)pyridin-3-yl)-N-(4-(2-(1,3,4-oxadiazol-2-yl)ethyl)phenyl)acrylamide]
BIKE; sheet T-418
  remaining binding at 0.3 µM: 97%
CDK11; sheet T-418
  remaining binding at 0.3 µM: 6.4%
CDK5; sheet T-418
  remaining binding at 0.3 µM: 80%
CSNK1D; sheet T-418
  remaining binding at 0.3 µM: 84%
DYRK1A; sheet T-418
  remaining binding at 0.3 µM: 100%
EPHB4; sheet T-418
  remaining binding at 0.3 µM: 96%
ERBB4; sheet T-418
  remaining binding at 0.3 µM: 89%
MARK4; sheet T-418
  remaining binding at 0.3 µM: 98%
MEK3; sheet T-418
  remaining binding at 0.3 µM: 100%
PCTK3; sheet T-418
  remaining binding at 0.3 µM: 100%
PDGFRA; sheet T-418
  remaining binding at 0.3 µM: 97%
PDGFRB; sheet T-418
  remaining binding at 0.3 µM: 100%
PDPK1; sheet T-418
  remaining binding at 0.3 µM: 64%
PHKG2; sheet T-418
  remaining binding at 0.3 µM: 71%
PIK3CA(C420R); sheet T-418
  remaining binding at 0.3 µM: 86%
PKMYT1; sheet T-418
  remaining binding at 0.3 µM: 73%
PLK1; sheet T-418
  remaining binding at 0.3 µM: 100%
PRKCD; sheet T-418
  remaining binding at 0.3 µM: 100%
PRKR; sheet T-418
  remaining binding at 0.3 µM: 100%
SIK2; sheet T-418
  remaining binding at 0.3 µM: 100%
STK36; sheet T-418
  remaining binding at 0.3 µM: 100%
ULK1; sheet T-418
  remaining binding at 0.3 µM: 41%

## Cc1ncccc1Oc1sc(C(N)=O)c2c1-c1c(cnn1C)CC2 [T-474, 1-methyl-8-((2-methylpyridin-3-yl)oxy)-4,5-dihydro-1H-thieno[3,4-g]indazole-6-carboxamide]
BIKE
  remaining binding at 0.3 µM: 100%
CDK11
  remaining binding at 0.3 µM: 1.1%
CDK5
  remaining binding at 0.3 µM: 94%
CSNK1D
  remaining binding at 0.3 µM: 61%
DYRK1A
  remaining binding at 0.3 µM: 66%
EPHB4
  remaining binding at 0.3 µM: 100%
ERBB4
  remaining binding at 0.3 µM: 100%
MARK4
  remaining binding at 0.3 µM: 83%
MEK3
  remaining binding at 0.3 µM: 100%
PCTK3
  remaining binding at 0.3 µM: 100%
PDGFRA
  remaining binding at 0.3 µM: 96%
PDGFRB
  remaining binding at 0.3 µM: 100%
PDPK1
  remaining binding at 0.3 µM: 70%
PHKG2
  remaining binding at 0.3 µM: 88%
PIK3CA(C420R)
  remaining binding at 0.3 µM: 95%
PKMYT1
  remaining binding at 0.3 µM: 71%
PLK1
  remaining binding at 0.3 µM: 100%
PRKCD
  remaining binding at 0.3 µM: 96%
PRKR
  remaining binding at 0.3 µM: 100%
SIK2
  remaining binding at 0.3 µM: 100%
STK36
  remaining binding at 0.3 µM: 100%
ULK1
  remaining binding at 0.3 µM: 43%
